From ChEMBL document CHEMBL1275577, “Study of the in vitro activities of rifaximin and comparator agents against 536 anaerobic intestinal bacteria from the perspective of potential utility in pathology involving bowel flora” (Antimicrob Agents Chemother, 2009)
Converted amounts (≈) assume the structure as drawn.

Tests used:
[1] = system: Schaalia odontolytica; test: Antimicrobial activity against Actinomyces odontolyticus by Wadsworth agar dilution method; type: functional
[2] = system: Collinsella aerofaciens; test: Antimicrobial activity against Colinsella aerofaciens by Wadsworth agar dilution method; type: functional
[3] = system: Fusobacterium necrophorum; test: Antimicrobial activity against Fusobacterium necrophorum by Wadsworth agar dilution method; type: functional
[4] = system: Porphyromonas asaccharolytica; test: Antimicrobial activity against Porphyromonas asaccharolyticus by Wadsworth agar dilution method; type: functional
[5] = system: Fusobacterium varium; test: Antimicrobial activity against Fusobacterium varium by Wadsworth agar dilution method; type: functional
[6] = system: Clostridium lactatifermentans; test: Antimicrobial activity against Clostridium lactatifermentans by Wadsworth agar dilution method; type: functional; details: Anaerotignum lactatifermentans
[7] = system: Lactobacillus acidophilus; test: Antimicrobial activity against Lactobacillus acidophilus by Wadsworth agar dilution method; type: functional
[8] = system: Tissierella praeacuta; test: Antimicrobial activity against Clostridium hastiforme by Wadsworth agar dilution method; type: functional
[9] = system: Bacteroides fragilis; test: Antimicrobial activity against Bacteroides fragilis by Wadsworth agar dilution method; type: functional
[10] = system: Peptoniphilus harei; test: Antimicrobial activity against Peptoniphilus harei by Wadsworth agar dilution method; type: functional
[11] = system: Eubacterium saburreum; test: Antimicrobial activity against Eubacterium saburreum by Wadsworth agar dilution method; type: functional; details: Lachnoanaerobaculum saburreum
[12] = system: Bifidobacterium pseudolongum; test: Antimicrobial activity against Bifidobacterium pseudolongum by Wadsworth agar dilution method; type: functional
[13] = system: Clostridium septicum; test: Antimicrobial activity against Clostridium septicum by Wadsworth agar dilution method; type: functional
[14] = system: Prevotella intermedia; test: Antimicrobial activity against Prevotella intermedia by Wadsworth agar dilution method; type: functional
[15] = system: Desulfovibrio desulfuricans; test: Antimicrobial activity against Desulfovibrio desulfuricans by Wadsworth agar dilution method; type: functional
[16] = system: Bacteroides ovatus; test: Antimicrobial activity against Bacteroides ovatus by Wadsworth agar dilution method; type: functional
[17] = system: Bacteroides thetaiotaomicron; test: Antimicrobial activity against Bacteroides thetaiotaomicron by Wadsworth agar dilution method; type: functional
[18] = system: Bacteroides stercoris; test: Antimicrobial activity against Bacteroides stercoris by Wadsworth agar dilution method; type: functional
[19] = Antimicrobial activity against Bifidobacterium infantis by Wadsworth agar dilution method; type: functional, Bifidobacterium longum subsp. infantis; details: Bifidobacterium longum
[20] = system: Bacteroides uniformis; test: Antimicrobial activity against Bacteroides uniformis by Wadsworth agar dilution method; type: functional
[21] = system: Parabacteroides merdae; test: Antimicrobial activity against Parabacteroides merdae by Wadsworth agar dilution method; type: functional
[22] = system: Blautia producta; test: Antimicrobial activity against Ruminococcus productus by Wadsworth agar dilution method; type: functional
[23] = system: Paraclostridium bifermentans; test: Antimicrobial activity against Clostridium bifermentans by Wadsworth agar dilution method; type: functional
[24] = system: Clostridium symbiosum; test: Antimicrobial activity against Clostridium symbiosum by Wadsworth agar dilution method; type: functional
[25] = system: Bifidobacterium bifidum; test: Antimicrobial activity against Bifidobacterium bifidum by Wadsworth agar dilution method; type: functional
[26] = system: Clostridium disporicum; test: Antimicrobial activity against Clostridium disporicum by Wadsworth agar dilution method; type: functional
[27] = system: Atopobium minutum; test: Antimicrobial activity against Atopobium minutum by Wadsworth agar dilution method; type: functional
[28] = system: Desulfovibrio piger; test: Antimicrobial activity against Desulfovibrio piger by Wadsworth agar dilution method; type: functional
[29] = system: Pseudoramibacter alactolyticus; test: Antimicrobial activity against Eubacterium alactolyticum by Wadsworth agar dilution method; type: functional
[30] = system: Clostridium acetobutylicum; test: Antimicrobial activity against Clostridium acetobutylicum by Wadsworth agar dilution method; type: functional
[31] = system: Parabacteroides goldsteinii; test: Antimicrobial activity against Parabacteroides goldsteinii by Wadsworth agar dilution method; type: functional
[32] = system: Ruminococcus torques; test: Antimicrobial activity against Ruminococcus torques by Wadsworth agar dilution method; type: functional; details: Mediterraneibacter torques
[33] = system: Lacticaseibacillus rhamnosus; test: Antimicrobial activity against Lactobacillus rhamnosus by Wadsworth agar dilution method; type: functional
[34] = system: Porphyromonas somerae; test: Antimicrobial activity against Porphyromonas somerae by Wadsworth agar dilution method; type: functional
[35] = system: Bifidobacterium longum; test: Antimicrobial activity against Bifidobacterium longum by Wadsworth agar dilution method; type: functional
[36] = system: Clostridium paraputrificum; test: Antimicrobial activity against Clostridium paraputrificum by Wadsworth agar dilution method; type: functional
[37] = system: Prevotella melaninogenica; test: Antimicrobial activity against Prevotella melaninogenica by Wadsworth agar dilution method; type: functional
[38] = system: Clostridium butyricum; test: Antimicrobial activity against Clostridium butyricum by Wadsworth agar dilution method; type: functional
[39] = system: Fusobacterium sp.; test: Antimicrobial activity against Fusobacterium sp. by Wadsworth agar dilution method; type: functional
[40] = system: Lactiplantibacillus plantarum; test: Antimicrobial activity against Lactobacillus plantarum by Wadsworth agar dilution method; type: functional
[41] = system: Clostridium tertium; test: Antimicrobial activity against Clostridium tertium by Wadsworth agar dilution method; type: functional
[42] = system: Prevotella corporis; test: Antimicrobial activity against Prevotella corporis by Wadsworth agar dilution method; type: functional
[43] = system: Eubacterium biforme; test: Antimicrobial activity against Eubacterium biforme by Wadsworth agar dilution method; type: functional; details: Holdemanella biformis
[44] = system: Clostridium nexile; test: Antimicrobial activity against Clostridium nexile by Wadsworth agar dilution method; type: functional; details: Faecalimonas nexilis
[45] = system: Eubacterium rectale; test: Antimicrobial activity against Eubacterium rectale by Wadsworth agar dilution method; type: functional; details: Agathobacter rectalis
[46] = system: Clostridium sp.; test: Antimicrobial activity against Clostridium sp. by Wadsworth agar dilution method; type: functional
[47] = system: Clostridium perfringens; test: Antimicrobial activity against Clostridium perfringens by Wadsworth agar dilution method; type: functional
[48] = system: Lactobacillus jensenii; test: Antimicrobial activity against Lactobacillus jensenii by Wadsworth agar dilution method; type: functional

SMILES: CC(=O)Oc1ccccc1C(=O)Nc1ncc([N+](=O)[O-])s1 [NITAZOXANIDE]
- MIC50 [1]: 2 µg/mL (≈ 6.51 µM)
- MIC90 [1]: 32 µg/mL (≈ 104 µM)
- MIC50 [2]: 2 µg/mL (≈ 6.51 µM)
- MIC90 [2]: 32 µg/mL (≈ 104 µM)
- MIC50 [3]: 1 µg/mL (≈ 3.25 µM)
- MIC90 [3]: 8 µg/mL (≈ 26 µM)
- MIC50 [4]: 0.5 µg/mL (≈ 1.63 µM)
- MIC90 [4]: 1 µg/mL (≈ 3.25 µM)
- MIC50 [5]: 1 µg/mL (≈ 3.25 µM)
- MIC90 [5]: 8 µg/mL (≈ 26 µM)
- MIC50 [6]: 0.5 µg/mL (≈ 1.63 µM)
- MIC90 [6]: 4 µg/mL (≈ 13 µM)
- MIC50 [7]: 2 µg/mL (≈ 6.51 µM)
- MIC90 [7]: 32 µg/mL (≈ 104 µM)
- MIC50 [8]: 0.5 µg/mL (≈ 1.63 µM)
- MIC90 [8]: 4 µg/mL (≈ 13 µM)
- MIC50 [9]: 4 µg/mL (≈ 13 µM)
- MIC90 [9]: 4 µg/mL (≈ 13 µM)
- MIC50 [10]: 0.5 µg/mL (≈ 1.63 µM)
- MIC90 [10]: 1 µg/mL (≈ 3.25 µM)
- MIC50 [11]: 2 µg/mL (≈ 6.51 µM)
- MIC90 [11]: 32 µg/mL (≈ 104 µM)
- MIC50 [12]: 2 µg/mL (≈ 6.51 µM)
- MIC90 [12]: 32 µg/mL (≈ 104 µM)
- MIC50 [13]: 0.5 µg/mL (≈ 1.63 µM)
- MIC90 [13]: 4 µg/mL (≈ 13 µM)
- MIC50 [14]: 4 µg/mL (≈ 13 µM)
- MIC90 [14]: 8 µg/mL (≈ 26 µM)
- MIC50 [15]: 4 µg/mL (≈ 13 µM)
- MIC90 [15]: 4 µg/mL (≈ 13 µM)
- MIC50 [16]: 2 µg/mL (≈ 6.51 µM)
- MIC90 [16]: 4 µg/mL (≈ 13 µM)
- MIC50 [17]: 2 µg/mL (≈ 6.51 µM)
- MIC90 [17]: 8 µg/mL (≈ 26 µM)
- MIC50 [18]: 4 µg/mL (≈ 13 µM)
- MIC90 [18]: 4 µg/mL (≈ 13 µM)
- MIC50 [19]: 2 µg/mL (≈ 6.51 µM)
- MIC90 [19]: 32 µg/mL (≈ 104 µM)
- MIC50 [20]: 4 µg/mL (≈ 13 µM)
- MIC90 [20]: 4 µg/mL (≈ 13 µM)
- MIC50 [21]: 4 µg/mL (≈ 13 µM)
- MIC90 [21]: 4 µg/mL (≈ 13 µM)
- MIC50 [22]: 0.5 µg/mL (≈ 1.63 µM)
- MIC90 [22]: 1 µg/mL (≈ 3.25 µM)
- MIC50 [23]: 0.5 µg/mL (≈ 1.63 µM)
- MIC90 [23]: 4 µg/mL (≈ 13 µM)
- MIC50 [24]: 0.5 µg/mL (≈ 1.63 µM)
- MIC90 [24]: 4 µg/mL (≈ 13 µM)
- MIC50 [25]: 2 µg/mL (≈ 6.51 µM)
- MIC90 [25]: 32 µg/mL (≈ 104 µM)
- MIC50 [26]: 0.5 µg/mL (≈ 1.63 µM)
- MIC90 [26]: 4 µg/mL (≈ 13 µM)
- MIC50 [27]: 2 µg/mL (≈ 6.51 µM)
- MIC90 [27]: 32 µg/mL (≈ 104 µM)
- MIC50 [28]: 1 µg/mL (≈ 3.25 µM)
- MIC90 [28]: 4 µg/mL (≈ 13 µM)
- MIC50 [29]: 2 µg/mL (≈ 6.51 µM)
- MIC90 [29]: 32 µg/mL (≈ 104 µM)
- MIC50 [30]: 0.5 µg/mL (≈ 1.63 µM)
- MIC90 [30]: 4 µg/mL (≈ 13 µM)
- MIC50 [31]: 4 µg/mL (≈ 13 µM)
- MIC90 [31]: 4 µg/mL (≈ 13 µM)
- MIC50 [32]: 0.5 µg/mL (≈ 1.63 µM)
- MIC90 [32]: 1 µg/mL (≈ 3.25 µM)
- MIC50 [33]: 2 µg/mL (≈ 6.51 µM)
- MIC90 [33]: 32 µg/mL (≈ 104 µM)
- MIC50 [34]: 0.5 µg/mL (≈ 1.63 µM)
- MIC90 [34]: 1 µg/mL (≈ 3.25 µM)
- MIC50 [35]: 2 µg/mL (≈ 6.51 µM)
- MIC90 [35]: 32 µg/mL (≈ 104 µM)
- MIC50 [36]: 0.5 µg/mL (≈ 1.63 µM)
- MIC90 [36]: 4 µg/mL (≈ 13 µM)
- MIC50 [37]: 4 µg/mL (≈ 13 µM)
- MIC90 [37]: 8 µg/mL (≈ 26 µM)
- MIC50 [38]: 0.5 µg/mL (≈ 1.63 µM)
- MIC90 [38]: 4 µg/mL (≈ 13 µM)
- MIC50 [39]: 1 µg/mL (≈ 3.25 µM)
- MIC90 [39]: 8 µg/mL (≈ 26 µM)
- MIC50 [40]: 2 µg/mL (≈ 6.51 µM)
- MIC90 [40]: 32 µg/mL (≈ 104 µM)
- MIC50 [41]: 0.5 µg/mL (≈ 1.63 µM)
- MIC90 [41]: 4 µg/mL (≈ 13 µM)
- MIC50 [42]: 4 µg/mL (≈ 13 µM)
- MIC90 [42]: 8 µg/mL (≈ 26 µM)
- MIC50 [43]: 2 µg/mL (≈ 6.51 µM)
- MIC90 [43]: 32 µg/mL (≈ 104 µM)
- MIC50 [44]: 0.5 µg/mL (≈ 1.63 µM)
- MIC90 [44]: 4 µg/mL (≈ 13 µM)
- MIC50 [45]: 2 µg/mL (≈ 6.51 µM)
- MIC90 [45]: 32 µg/mL (≈ 104 µM)
- MIC50 [46]: 0.5 µg/mL (≈ 1.63 µM)
- MIC90 [46]: 4 µg/mL (≈ 13 µM)
- MIC50 [47]: 2 µg/mL (≈ 6.51 µM)
- MIC90 [47]: 4 µg/mL (≈ 13 µM)
- MIC50 [48]: 2 µg/mL (≈ 6.51 µM)
- MIC90 [48]: 32 µg/mL (≈ 104 µM)
